US20250221953A1 (The University of Chicago, priority 2022, published 2025)

Experiments:
[1] = system: B16F10 tumor; assay: Mouse tumor model, B16F10; type: in vivo; details: B16F10 tumor-bearing C57BL/6 mice on enriched diet vs control diet
Procedure: For C57BL/6 mice and TCR-a KO mice tumor model, mice were anesthetized with isoflurane, shaved the injection site, and then injected subcutaneously in the abdominal flank with 1×10^5 B16F10, MC38, or LLC1 cells, or in the mammary gland with 2×10^5 E0771 cells. C57BL/6 nude mice were injected subcutaneously in the abdominal flank with 1×10^5B16F10 cells. […] Tumors were measured the tumors using a caliper every 2-3 days. Tumor volumes were calculated using the following formula: length×width×[(length×width)^0.5]×π/6. Mice were euthanized at humane endpoints or day 11-15 for tissue collection.
The mice were treated once a day for 5 consecutive days per week for 2 weeks. Tumors were measured the tumors using a caliper every 2-3 days. Tumor volumes were calculated using the following formula: length×width×[(length×width)^0.5]×π/6. Mice were euthanized at humane endpoints.
For anti-PD-1 treatment mouse model, 6-8 weeks old C57BL/6 mice were anesthetized with isoflurane, shaved the injection site, and then injected subcutaneously in the abdominal flank with 1×10^5 B16F10 for tumor development. […] In day 3, 6, 9, 12, and 15, 250 μg anti-PD-1 (BioXCell) or IgG control (BioXCell) was injected intraperitoneally per mouse. Tumors were measured the tumors using a caliper every 2-3 days. Tumor volumes were calculated using the following formula: length×width×[(length×width)^0.5]×π/6. […]

[2] = system: Jurkat T cells; type: cell-based, human; details: IL-2 production level in treated group compared to control group; 48 hours treatment, then anti-CD3/anti-CD28 12 hours
[3] = system: Mouse T cell; assay: Second screen: IL-2 level of murine primary T cells; type: cell-based
Description: Two preliminary screens were designed and performed.

[4] = system: Mouse CD4^+ T cell; assay: Second screen: IL-2 level of mouse CD4+ T cells
[5] = system: Mouse CD8^+ T cell; assay: Second screen: IL-2 level of mouse CD8+ T cells
[6] = system: B cell acute lymphoblastic leukemia (B-ALL); details: Kantarjian et al., 2017; cited from earlier work
[7] = system: mouse primary CD8^+ T cells; assay: In vitro function of activated mouse primary CD8+ T cells (cytokines, Ki-67, apoptosis, p-CREB); type: cell-based
Procedure: For experiments with live/dead criteria, cells were first stained with Fixable Viability Dyes (FVD) (Thermo Fisher Scientific) according to the manufacturer's instructions. Subsequent surface marker staining was performed in Flow Cytometry Staining Buffer (Thermo Fisher Scientific). Intracellular staining for flow panels containing nuclear proteins was performed using the eBioscience FoxP3/Transcription Factor Staining Buffer Set (Thermo Fisher Scientific) according to the manufacturer's instructions. For intracellular staining of cytoplasmic proteins, the Fixation/Permeabilization Solution Kit (BD Biosciences) was used according to the manufacturer's instructions. […] The cell pellets were washed again with FACS buffer, centrifuged at 300×g for 5 minutes, and incubated with antibodies in FACS buffer for 45 minutes-1 hour at room temperature. […] Treatment with sulfosuccinimidyl oleate (SSO) was performed by incubating cells with 100 μM SSO for 24 hours.

[8] = system: mouse melanoma B16 cells with CD8+ T cells; assay: CD8+ T cell mediated killing of B16 cells in vitro; type: cell-based
[9] = system: murine melanoma B16 cells; assay: Oral gavage in syngeneic mice inoculated with B16 cells; type: in vivo, mouse
[10] = system: mouse primary CD8^+ T cells; assay: 13C1-TVA metabolic flux analysis by GC-MS; type: cell-based; details: 100 μM SSO, 24 hours
Procedure: Samples were kept at room temperature after centrifugation to form two distinct phases. 650 μL of the bottom dichloromethane fraction was transferred into a new glass tube and dried with nitrogen gas to obtain a lipid fraction pellet. […] FAME cleanup was applied if analyzing animal tissues (FAME Cleanup: a Florisil column was pre-conditioned with 3 mL of hexane, added methyl ester, and eluted twice with 1 mL isohexane-diethyl ether (95:5 v/v), with drying down in between elutions). Otherwise, samples were dried down under nitrogen and re-suspended in 50 μL of hexane to load onto gas chromatography (GC) mass spectrometry (MS). […] Metabolite levels and mass isotopomer distributions of derivatized fragments were analyzed with an in-house MATLAB script, which integrated the metabolite fragment ions and corrected for natural isotope abundances.

Compound	Relative changed percentage (%) [2] [%]	Mouse T cell IL-2 level changes after treatment [3] [%]	Mouse CD4^+ T cell IL-2 level changes after treatment [4] [%]	Mouse CD8^+ T cell IL-2 level changes after treatment [5] [%]	also measured
CCCCCC/C=C\CCCCCCCCCC(=O)O [CVA, cis-Vaccenic acid, reference compound]					body weights of mice [1]: did not alter body weights
OC[C@H]1OC(O)[C@H](O)[C@@H](O)[C@H]1O (stereo partly drawn) [D(+)-GALACTOSE ANHYDROUS]	35.84	130.1	110.4	130.3	
Nc1ccc(C(=O)O)cc1 [p-Aminobenzoic Acid]		160.3	140.5	145.2	
Blinatumomab: bi-specific T-cell engager (BiTE) targeting CD19 antigen on B cells and CD3 on T cells					response rate in relapsed disease [6]: < 50%
D-Glycerate 2,3-diphosphate sodium salt	47.74	106.2	97.9	121.4	
Cl.Cl.O=S(=O)(NCCNC/C=C/c1ccc(Br)cc1)c1cccc2cnccc12 [Compound H89, H 89 Dihydrochloride, reference compound]					effect of inhibitor/modulator on TVA-enhanced activation of CD8+ T cells (IL-2, TNF-α, IFN-γ) ([7]; added synchronized with 20 μM TVA for 24 hours, SCH-202676 200 nM, H-89 200 nM, 666-15 100 nM): similarly abolishes TVA-enhanced activation of CD8^+ T cells
C-PEPTIDE FRAGMENT 3-33, HUMAN/C-peptide [#203]					CD8+ T cells mediated killing of mouse melanoma B16 cells [8]: enhances CD8+ T cells mediated killing of mouse melanoma B16 cells; killing and CD8 T cell function compared with TVA [8]: better than cells treated with TVA; anti-tumor immunity [9]: increased anti-tumor immunity in a dose dependent manner
CCCCCCCC/C=C\CCCCCCCC(=O)ON1C(=O)CC(S(=O)(=O)O)C1=O (stereo not drawn) [SSO, sulfosuccinimidyl oleate, reference compound]					effect of SSO on TVA-dependent CD8+ T cell activation ([7]; 100 μM SSO, TNF-α, IFN-γ): does not affect TVA-dependent CD8^+ T cell activation; effect on import of 13C-TVA into CD8+ T cells [10]: drastically reduced import of ^13C-TVA
Cc1cn([C@H]2C[C@H](O)[C@@H](CO)O2)c(=O)[nH]c1=O [THYMIDINE]	39.63	145.6	135.8	128.9	
Nc1nc2nc[nH]c2c(=O)[nH]1 [GUANINE]	15.14	148.6	110.4	150.8	
